Laboratory results as given in PubChem BioAssay (NCI).
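Compound exposure: 48 hours, 5 concentrations, 96-well plates. GI50 is the concentration that inhibits growth by half. At the TGI there is no net growth.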

Key:
Assay in all cases: DTP human tumour cell line panel, 48 h
786-0 renal = test system: 786-0 renal
A498 renal = test system: A498 renal
A549 NSCLC = test system: A549 NSCLC
ACHN renal = test system: ACHN renal
BT-549 breast = test system: BT-549 breast
CAKI-1 renal = test system: CAKI-1 renal
CCRF-CEM leukemia = test system: CCRF-CEM leukemia
COLO 205 colon = test system: COLO 205 colon
DU-145 prostate = test system: DU-145 prostate
HCC-2998 colon = test system: HCC-2998 colon
HCT-116 colon = test system: HCT-116 colon
HCT-15 colon = test system: HCT-15 colon
HL-60(TB) leukemia = test system: HL-60(TB) leukemia
HOP-62 NSCLC = test system: HOP-62 NSCLC
HOP-92 NSCLC = test system: HOP-92 NSCLC
HS 578T breast = test system: HS 578T breast
HT29 colon = test system: HT29 colon
IGROV1 ovarian = test system: IGROV1 ovarian
K-562 leukemia = test system: K-562 leukemia
KM12 colon = test system: KM12 colon
LOX IMVI melanoma = test system: LOX IMVI melanoma
M14 melanoma = test system: M14 melanoma
MALME-3M melanoma = test system: MALME-3M melanoma
MCF7 breast = test system: MCF7 breast
MDA-MB-231 breast = test system: MDA-MB-231 breast
MDA-MB-435 = test system: MDA-MB-435
MOLT-4 leukemia = test system: MOLT-4 leukemia
NCI-H226 lung = test system: NCI-H226 lung
NCI-H23 lung = test system: NCI-H23 lung
NCI-H460 lung = test system: NCI-H460 lung
NCI-H522 lung = test system: NCI-H522 lung
NCI/ADR-RES ovarian = test system: NCI/ADR-RES ovarian
OVCAR-3 ovarian = test system: OVCAR-3 ovarian
OVCAR-4 ovarian = test system: OVCAR-4 ovarian
OVCAR-5 ovarian = test system: OVCAR-5 ovarian
OVCAR-8 ovarian = test system: OVCAR-8 ovarian
PC-3 prostate = test system: PC-3 prostate
RPMI-8226 leukemia = test system: RPMI-8226 leukemia
RXF 393 renal = test system: RXF 393 renal
SF-268 CNS = test system: SF-268 CNS
SF-295 CNS = test system: SF-295 CNS
SF-539 CNS = test system: SF-539 CNS
SK-MEL-2 melanoma = test system: SK-MEL-2 melanoma
SK-MEL-28 melanoma = test system: SK-MEL-28 melanoma
SK-MEL-5 melanoma = test system: SK-MEL-5 melanoma
SK-OV-3 ovarian = test system: SK-OV-3 ovarian
SN12C renal = test system: SN12C renal
SNB-19 CNS = test system: SNB-19 CNS
SNB-75 CNS = test system: SNB-75 CNS
SR leukemia = test system: SR leukemia
SW-620 colon = test system: SW-620 colon
T-47D breast = test system: T-47D breast
TK-10 renal = test system: TK-10 renal
U251 CNS = test system: U251 CNS
UACC-257 melanoma = test system: UACC-257 melanoma
UACC-62 melanoma = test system: UACC-62 melanoma
UO-31 renal = test system: UO-31 renal

CCN(Cc1cccc(F)c1F)c1ccc(CO)c(Cl)c1
GI50 (786-0 renal): 13.6 µM | TGI (786-0 renal): 32.2 µM | GI50 (A498 renal): 0.0217 µM | TGI (A498 renal): 0.102 µM | GI50 (A549 NSCLC): 1.54 µM | TGI (A549 NSCLC): 24.2 µM | GI50 (ACHN renal): 17.8 µM | TGI (ACHN renal): > 51.7 µM | GI50 (BT-549 breast): 18.5 µM | TGI (BT-549 breast): 35.9 µM | GI50 (CAKI-1 renal): 0.4 µM | TGI (CAKI-1 renal): 5.59 µM | GI50 (CCRF-CEM leukemia): 20.1 µM | TGI (CCRF-CEM leukemia): 69.1 µM | GI50 (COLO 205 colon): 2.47 µM | TGI (COLO 205 colon): 7.59 µM | GI50 (DU-145 prostate): 18.8 µM | TGI (DU-145 prostate): 55.6 µM | GI50 (HCC-2998 colon): 5.09 µM | TGI (HCC-2998 colon): 24.6 µM | GI50 (HCT-116 colon): 0.067 µM | TGI (HCT-116 colon): 11.2 µM | GI50 (HCT-15 colon): 12.4 µM | TGI (HCT-15 colon): 36.2 µM | GI50 (HL-60(TB) leukemia): 7.25 µM | TGI (HL-60(TB) leukemia): 41.2 µM | GI50 (HOP-62 NSCLC): 1.82 µM | TGI (HOP-62 NSCLC): 24.6 µM | GI50 (HOP-92 NSCLC): 0.19 µM | TGI (HOP-92 NSCLC): 8.23 µM | GI50 (HS 578T breast): 17.9 µM | TGI (HS 578T breast): 48.7 µM | GI50 (HT29 colon): 3.83 µM | TGI (HT29 colon): 19 µM | GI50 (IGROV1 ovarian): 0.0668 µM | TGI (IGROV1 ovarian): 0.335 µM | GI50 (K-562 leukemia): 0.683 µM | TGI (K-562 leukemia): 29.3 µM | GI50 (KM12 colon): 15.8 µM | TGI (KM12 colon): 31.6 µM | GI50 (LOX IMVI melanoma): 15.8 µM | TGI (LOX IMVI melanoma): 30.7 µM | GI50 (M14 melanoma): 17.9 µM | TGI (M14 melanoma): 35.1 µM | GI50 (MALME-3M melanoma): 16 µM | TGI (MALME-3M melanoma): 34.2 µM | GI50 (MCF7 breast): 0.157 µM | TGI (MCF7 breast): 12.6 µM | GI50 (MDA-MB-231 breast): 16.1 µM | TGI (MDA-MB-231 breast): 36.1 µM | GI50 (MDA-MB-435): 17.7 µM | TGI (MDA-MB-435): 37.1 µM | GI50 (MOLT-4 leukemia): 19.8 µM | TGI (MOLT-4 leukemia): 49.9 µM | GI50 (NCI-H226 lung): 0.0318 µM | TGI (NCI-H226 lung): 0.141 µM | GI50 (NCI-H23 lung): 13.6 µM | TGI (NCI-H23 lung): 51.6 µM | GI50 (NCI-H460 lung): 0.176 µM | TGI (NCI-H460 lung): 11 µM | GI50 (NCI-H522 lung): 14.1 µM | TGI (NCI-H522 lung): 31.2 µM | GI50 (NCI/ADR-RES ovarian): 17.5 µM | TGI (NCI/ADR-RES ovarian): 52.2 µM | GI50 (OVCAR-3 ovarian): 0.304 µM | TGI (OVCAR-3 ovarian): 1.28 µM | GI50 (OVCAR-4 ovarian): 0.127 µM | TGI (OVCAR-4 ovarian): 1.24 µM | GI50 (OVCAR-5 ovarian): 0.058 µM | TGI (OVCAR-5 ovarian): 0.228 µM | GI50 (OVCAR-8 ovarian): 14.2 µM | TGI (OVCAR-8 ovarian): 48.3 µM | GI50 (PC-3 prostate): 15.4 µM | TGI (PC-3 prostate): 37.2 µM | GI50 (RPMI-8226 leukemia): 2.32 µM | TGI (RPMI-8226 leukemia): 39.7 µM | GI50 (RXF 393 renal): 1.89 µM | TGI (RXF 393 renal): 14.9 µM | GI50 (SF-268 CNS): 19.3 µM | TGI (SF-268 CNS): 42.7 µM | GI50 (SF-295 CNS): 0.284 µM | TGI (SF-295 CNS): 25 µM | GI50 (SF-539 CNS): 15.5 µM | TGI (SF-539 CNS): 30.2 µM | GI50 (SK-MEL-2 melanoma): 4.68 µM | TGI (SK-MEL-2 melanoma): 22.6 µM | GI50 (SK-MEL-28 melanoma): 14 µM | TGI (SK-MEL-28 melanoma): 30.1 µM | GI50 (SK-MEL-5 melanoma): 11.2 µM | TGI (SK-MEL-5 melanoma): 23.4 µM | GI50 (SK-OV-3 ovarian): 8.3 µM | TGI (SK-OV-3 ovarian): 27.4 µM | GI50 (SN12C renal): 13.4 µM | TGI (SN12C renal): 30.2 µM | GI50 (SNB-19 CNS): 17 µM | TGI (SNB-19 CNS): > 58.6 µM | GI50 (SNB-75 CNS): 12.4 µM | TGI (SNB-75 CNS): 40.5 µM | GI50 (SR leukemia): 18.8 µM | TGI (SR leukemia): 43.7 µM | GI50 (SW-620 colon): 0.554 µM | TGI (SW-620 colon): 18.1 µM | GI50 (T-47D breast): 0.07 µM | TGI (T-47D breast): 0.414 µM | GI50 (TK-10 renal): 0.0385 µM | TGI (TK-10 renal): 0.23 µM | GI50 (U251 CNS): 0.63 µM | TGI (U251 CNS): 22.2 µM | GI50 (UACC-257 melanoma): 0.0896 µM | TGI (UACC-257 melanoma): 0.326 µM | GI50 (UACC-62 melanoma): 0.0842 µM | TGI (UACC-62 melanoma): 0.519 µM | GI50 (UO-31 renal): 2.35 µM | TGI (UO-31 renal): 32.1 µM
